Measurements reported in patent US20220298115A1, “SMALL MOLECULE INHIBITORS OF ACETYL COENZYME A SYNTHETASE SHORT CHAIN 2 (ACSS2)” (Curadev Pharma Pvt. Ltd., priority 2019, published 2022).

Columns and labels:
[1] = test system: [14C] acetate incorporation in macromolecules, BT474 cells; experiment: Cell based [14C] acetate incorporation assay; conditions: Homo sapiens, BT-474, 3 h at 37° C., read-out: Cellular Activity (IC50 range)
Outline: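 BT474 cells (4×10^4/well, plated overnight) were preincubated with compound for 10 min at 37°C in HBSS. They were then given 0.1 μCi [14C]acetate plus 10 μM unlabelled acetate (both in the added acetate solution) for 3 h at 37°C, 5% CO2. Label incorporated into macromolecules was harvested onto PEI-treated filters and counted by scintillation.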

human ACSS2 = biological target: T1, human ACSS2 (Homo sapiens, UniProt Q9NR19); experiment: ACSS2 enzyme assay (acetyl-CoA formation, LC-MS/MS); format: biochemical; conditions: cytosolic fraction of BT474 cells as ACSS2 source; 100 μM acetate, CoA and ATP; 2 h at 25° C.; read-out: Enzyme Activity (IC50 range)
T1 construct: The cytosolic fraction of BT474 cells was used as a source of the ACSS2 enzyme; endogenous in cells; host or cells: BT474 cells (cytosolic fraction)
Outline: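 Enzyme source was BT474 cytosolic fraction (100 ng), preincubated 5 min with compound in 25 mM Tris-HCl pH7.4, 1 mM MgCl2, 1 mM DTT, 0.05% Tween20, 1% DMSO. Reaction started with 100 μM each of acetate, CoA and ATP, 2 h at 25 °C, stopped with TCA; acetyl-CoA quantified by LC-MS/MS.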

T1 sequence (Q9NR19 whole entry): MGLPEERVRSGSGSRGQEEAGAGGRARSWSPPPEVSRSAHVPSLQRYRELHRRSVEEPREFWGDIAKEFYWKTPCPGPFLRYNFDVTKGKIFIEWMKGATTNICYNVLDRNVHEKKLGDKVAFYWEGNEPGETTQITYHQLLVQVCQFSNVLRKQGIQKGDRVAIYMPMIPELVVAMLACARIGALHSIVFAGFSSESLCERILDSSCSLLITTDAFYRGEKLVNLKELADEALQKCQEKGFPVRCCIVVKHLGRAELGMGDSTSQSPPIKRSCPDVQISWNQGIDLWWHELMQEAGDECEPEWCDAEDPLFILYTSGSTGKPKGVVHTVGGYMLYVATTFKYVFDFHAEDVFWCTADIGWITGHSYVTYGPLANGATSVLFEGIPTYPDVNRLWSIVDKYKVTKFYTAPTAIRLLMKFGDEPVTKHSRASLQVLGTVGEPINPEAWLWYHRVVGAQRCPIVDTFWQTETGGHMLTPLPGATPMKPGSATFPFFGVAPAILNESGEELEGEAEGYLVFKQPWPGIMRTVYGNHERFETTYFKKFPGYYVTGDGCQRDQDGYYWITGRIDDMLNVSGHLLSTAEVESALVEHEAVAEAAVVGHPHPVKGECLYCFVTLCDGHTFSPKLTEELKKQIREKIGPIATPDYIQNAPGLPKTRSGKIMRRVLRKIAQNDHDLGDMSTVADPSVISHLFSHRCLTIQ

Row | SMILES | IC50 [1] [µM] | IC50 (human ACSS2) [µM]
1 | CC(=O)N1CCN(C(=O)Nc2ccc3nc(-c4ccccc4)c(-c4ccccc4)cc3c2)CC1 [Example 133, 4-acetyl-N-(2,3-diphenylquinolin-6-yl)piperazine-1-carboxamide] | > 10 | ≤ 10
2 | O=C(Nc1ccc2nc(-c3ccccc3)c(-c3ccccc3)cc2c1)Nc1ccccn1 [Example 139, 1-(2,3-diphenylquinolin-6-yl)-3-(pyridin-2-yl)urea] | > 10 | > 10
3 | O=C(Nc1ccccc1)Nc1ccc2nc(-c3ccccc3)c(-c3ccccc3)cc2c1 [Example 140, 1-(2,3-diphenylquinolin-6-yl)-3-phenylurea] | > 10 | > 10
4 | O=C(Nc1ccncc1)Nc1ccc2nc(-c3ccccc3)c(-c3ccccc3)cc2c1 [Example 142, 1-(2,3-diphenylquinolin-6-yl)-3-(pyridin-4-yl)urea] | > 10 | > 10
5 | O=C(Nc1ccc2nc(-c3ccccc3)c(-c3ccccc3)cc2c1)NC1(CO)CCCC1 [Example 143, 1-(2,3-diphenylquinolin-6-yl)-3-(1-(hydroxymethyl)cyclopentyl) urea] | ≤ 10 | > 10
6 | CCC(O)CNC(=O)Nc1cnc2nc(-c3ccccc3)c(-c3ccccc3)cc2c1 (stereo not shown) [Example 145, 1-(6,7-Diphenyl-1,8-naphthyridin-3-yl)-3-(2-hydroxybutyl)urea] | ≤ 1 | ≤ 1

More lines, now with the values ahead:

Row | IC50 [1] [µM] | IC50 (human ACSS2) [µM] | SMILES
7 | > 10 | ≤ 10 | CN1CCN(C(=O)Nc2ccc3nc(-c4ccccc4)c(-c4ccccc4)cc3c2)CC1 [Example 132, N-(2,3-diphenylquinolin-6-yl)-4-methylpiperazine-1-carboxamide]
8 | ≤ 1 | ≤ 1 | C=CCNC(=O)Nc1ccc2nc(-c3ccccc3)c(-c3ccccc3)cc2c1 [Example 134, 1-allyl-3-(2,3-diphenylquinolin-6-yl)urea]
9 | ≤ 1 | ≤ 1 | C#CCNC(=O)Nc1ccc2nc(-c3ccccc3)c(-c3ccccc3)cc2c1 [Example 135, 1-(2,3-diphenylquinolin-6-yl)-3-(prop-2-yn-1-yl)urea]
10 | ≤ 1 | ≤ 1 | O=C(Nc1ccc2nc(-c3ccccc3)c(-c3ccccc3)cc2c1)NC1CCCC1O (stereo not shown) [Example 136, 1-(2,3-diphenylquinolin-6-yl)-3-(2-hydroxycyclo-pentyl)urea]
11 | ≤ 1 | ≤ 1 | O=C(Nc1ccc2nc(-c3ccccc3)c(-c3ccccc3)cc2c1)NC1CCOCC1 [Example 137, 1-(2,3-diphenylquinolin-6-yl)-3-(tetrahydro-2H-pyran-4-yl)urea]
12 | < 0.1 | < 0.1 | COC1CCN(C(=O)Nc2ccc3nc(-c4ccccc4)c(-c4ccccc4)cc3c2)C1 (stereo not shown) [Example 138, N-(2,3-diphenylquinolin-6-yl)-3-methoxypyrrol-idine-1-carboxamide]
13 | > 10 | ≤ 10 | CN1CCC(NC(=O)Nc2ccc3nc(-c4ccccc4)c(-c4ccccc4)cc3c2)C1 (stereo not shown) [Example 141, 1-(2,3-diphenylquinolin-6-yl)-3-(1-methylpyrrolidin-3-yl)urea]
14 | < 0.1 | ≤ 1 | Cn1cc(NC(=O)Nc2ccc3nc(-c4ccccc4)c(-c4ccccc4)cc3c2)cn1 [Example 144, 1-(2,3-diphenylquinolin-6-yl)-3-(1-methyl-1H-pyrazol-4-yl)urea]
